The NIST ThermoML archive (doi:10.1021/je025657+)
Several values for one entry are separate records, joined by “and”; a condition that tells them apart may be missing. Equal values may be shown once. ± gives the expanded uncertainty stated by the source.

`COC(F)(F)F` [trifluoromethoxymethane] showed a mass density (240 K, 17 kPa, Gas) of 0.84 ± 0.26 kg/m3, a mass density (240 K, 25.1 kPa, Gas) of 1.25 ± 0.26 kg/m3 and a mass density (240 K, 36.9 kPa, Gas) of 1.87 ± 0.26 kg/m3. The mass density (240 K, 517.1 kPa, Liquid) was 1262.64 ± 1.1 kg/m3, the mass density (240 K, 1011 kPa, Liquid) was 1263.83 ± 1.1 kg/m3 and the mass density (240 K, 1516.2 kPa, Liquid) was 1265.03 ± 1.2 kg/m3. The mass density (240 K, 2014.7 kPa, Liquid) was 1266.21 ± 1.2 kg/m3, the mass density (240 K, 2517.3 kPa, Liquid) was 1267.38 ± 1.3 kg/m3 and the mass density (240 K, 3024.1 kPa, Liquid) was 1268.56 ± 1.3 kg/m3. For the same compound, the mass density (240 K, 3529.6 kPa, Liquid) was 1269.72 ± 1.4 kg/m3, the mass density (240 K, 4031 kPa, Liquid) was 1270.86 ± 1.4 kg/m3 and the mass density (240 K, 4515.5 kPa, Liquid) was 1271.95 ± 1.5 kg/m3. It also gave a mass density (240 K, 5038.9 kPa, Liquid) of 1273.12 ± 1.5 kg/m3, a mass density (240 K, 5511.8 kPa, Liquid) of 1274.16 ± 1.6 kg/m3 and a mass density (240 K, 6024.7 kPa, Liquid) of 1275.29 ± 1.6 kg/m3. For the same compound, the mass density (240 K, 6511.7 kPa, Liquid) was 1276.35 ± 1.7 kg/m3, the mass density (240 K, 6981.1 kPa, Liquid) was 1277.36 ± 1.7 kg/m3 and the mass density (240 K, Liquid) was 1261.55 ± 4.3 kg/m3 and 1261.54 ± 4.3 kg/m3. For the same compound, the mass density (250 K, 19.2 kPa, Gas) was 0.91 ± 0.25 kg/m3, the mass density (250 K, 28.3 kPa, Gas) was 1.34 ± 0.26 kg/m3 and the mass density (250 K, 41.7 kPa, Gas) was 1.98 ± 0.26 kg/m3. The mass density (250 K, 61.2 kPa, Gas) was 2.94 ± 0.26 kg/m3, the mass density (250 K, 89.4 kPa, Gas) was 4.33 ± 0.27 kg/m3 and the mass density (250 K, 505.1 kPa, Liquid) was 1236.18 ± 1 kg/m3. For the same compound, the mass density (250 K, 1008.8 kPa, Liquid) was 1237.55 ± 1.1 kg/m3, the mass density (250 K, 1508.8 kPa, Liquid) was 1238.91 ± 1.1 kg/m3 and the mass density (250 K, 2020.1 kPa, Liquid) was 1240.28 ± 1.1 kg/m3. The mass density (250 K, 2517.2 kPa, Liquid) was 1241.59 ± 1.2 kg/m3, the mass density (250 K, 3037 kPa, Liquid) was 1242.95 ± 1.2 kg/m3 and the mass density (250 K, 3530.8 kPa, Liquid) was 1244.22 ± 1.3 kg/m3. For the same compound, the mass density (250 K, 4030.5 kPa, Liquid) was 1245.49 ± 1.3 kg/m3, the mass density (250 K, 4537.2 kPa, Liquid) was 1246.78 ± 1.4 kg/m3 and the mass density (250 K, 5042.6 kPa, Liquid) was 1248.05 ± 1.4 kg/m3. It also gave a mass density (250 K, 5550.6 kPa, Liquid) of 1249.31 ± 1.4 kg/m3, a mass density (250 K, 6026.5 kPa, Liquid) of 1250.48 ± 1.5 kg/m3 and a mass density (250 K, 6529.6 kPa, Liquid) of 1251.71 ± 1.5 kg/m3. It also gave a mass density (250 K, 6975.1 kPa, Liquid) of 1252.79 ± 1.6 kg/m3, a mass density (250 K, Liquid) of 1235.07 ± 4 kg/m3 and a mass density (260 K, 18.7 kPa, Gas) of 1.11 ± 0.26 kg/m3. It also gave a mass density (260 K, 27.6 kPa, Gas) of 1.53 ± 0.26 kg/m3, a mass density (260 K, 40.7 kPa, Gas) of 2.15 ± 0.26 kg/m3 and a mass density (260 K, 59.9 kPa, Gas) of 3.03 ± 0.26 kg/m3. For the same compound, the mass density (260 K, 87.8 kPa, Gas) was 4.4 ± 0.27 kg/m3, the mass density (260 K, 127.7 kPa, Gas) was 6.4 ± 0.27 kg/m3 and the mass density (260 K, 507.8 kPa, Liquid) was 1209.12 ± 0.93 kg/m3. It also gave a mass density (260 K, 1009.3 kPa, Liquid) of 1210.7 ± 0.97 kg/m3, a mass density (260 K, 1499.4 kPa, Liquid) of 1212.21 ± 1 kg/m3 and a mass density (260 K, 2004.5 kPa, Liquid) of 1213.76 ± 1 kg/m3. For the same compound, the mass density (260 K, 2515.8 kPa, Liquid) was 1215.3 ± 1.1 kg/m3, the mass density (260 K, 3012.1 kPa, Liquid) was 1216.77 ± 1.1 kg/m3 and the mass density (260 K, 3527.2 kPa, Liquid) was 1218.29 ± 1.2 kg/m3. For the same compound, the mass density (260 K, 4018 kPa, Liquid) was 1219.71 ± 1.2 kg/m3, the mass density (260 K, 4522 kPa, Liquid) was 1221.16 ± 1.2 kg/m3 and the mass density (260 K, 5039.1 kPa, Liquid) was 1222.63 ± 1.3 kg/m3. It also gave a mass density (260 K, 5512.3 kPa, Liquid) of 1223.96 ± 1.3 kg/m3, a mass density (260 K, 6040.8 kPa, Liquid) of 1225.42 ± 1.4 kg/m3 and a mass density (260 K, 6546.9 kPa, Liquid) of 1226.81 ± 1.4 kg/m3. It also gave a mass density (260 K, 6987.4 kPa, Liquid) of 1227.99 ± 1.4 kg/m3, a mass density (260 K, Liquid) of 1208.02 ± 3.6 kg/m3 and a mass density (270 K, 23.7 kPa, Gas) of 1.1 ± 0.25 kg/m3. For the same compound, the mass density (270 K, 35 kPa, Gas) was 1.6 ± 0.26 kg/m3, the mass density (270 K, 51.5 kPa, Gas) was 2.35 ± 0.26 kg/m3 and the mass density (270 K, 75.7 kPa, Gas) was 3.49 ± 0.26 kg/m3. For the same compound, the mass density (270 K, 110.6 kPa, Gas) was 5.15 ± 0.27 kg/m3, the mass density (270 K, 160.6 kPa, Gas) was 7.63 ± 0.27 kg/m3 and the mass density (270 K, 500.8 kPa, Liquid) was 1180.45 ± 0.84 kg/m3. For the same compound, the mass density (270 K, 1001.8 kPa, Liquid) was 1182.27 ± 0.87 kg/m3, the mass density (270 K, 1515.4 kPa, Liquid) was 1184.1 ± 0.91 kg/m3 and the mass density (270 K, 1999.2 kPa, Liquid) was 1185.81 ± 0.94 kg/m3. It also gave a mass density (270 K, 2500.7 kPa, Liquid) of 1187.53 ± 0.97 kg/m3, a mass density (270 K, 3017 kPa, Liquid) of 1189.29 ± 1 kg/m3 and a mass density (270 K, 3484.3 kPa, Liquid) of 1190.86 ± 1.1 kg/m3. It also gave a mass density (270 K, 4038.2 kPa, Liquid) of 1192.68 ± 1.1 kg/m3, a mass density (270 K, 4513.3 kPa, Liquid) of 1194.24 ± 1.1 kg/m3 and a mass density (270 K, 5047.2 kPa, Liquid) of 1195.96 ± 1.2 kg/m3. It also gave a mass density (270 K, 5542.1 kPa, Liquid) of 1197.53 ± 1.2 kg/m3, a mass density (270 K, 6036.1 kPa, Liquid) of 1199.08 ± 1.2 kg/m3 and a mass density (270 K, 6529.6 kPa, Liquid) of 1200.61 ± 1.3 kg/m3. It also gave a mass density (270 K, 6973.6 kPa, Liquid) of 1201.96 ± 1.3 kg/m3, a mass density (270 K, Liquid) of 1179.44 ± 3.3 kg/m3 and a mass density (280 K, 27.5 kPa, Gas) of 1.21 ± 0.25 kg/m3. For the same compound, the mass density (280 K, 40.5 kPa, Gas) was 1.79 ± 0.26 kg/m3, the mass density (280 K, 59.6 kPa, Gas) was 2.61 ± 0.26 kg/m3 and the mass density (280 K, 87.6 kPa, Gas) was 3.89 ± 0.26 kg/m3. It also gave a mass density (280 K, 128.3 kPa, Gas) of 5.75 ± 0.27 kg/m3, a mass density (280 K, 186.4 kPa, Gas) of 8.53 ± 0.28 kg/m3 and a mass density (280 K, 269 kPa, Gas) of 12.52 ± 0.29 kg/m3. It also gave a mass density (280 K, 454.4 kPa, Liquid) of 1150.61 ± 0.74 kg/m3, a mass density (280 K, 985.2 kPa, Liquid) of 1152.87 ± 0.77 kg/m3 and a mass density (280 K, 1507.7 kPa, Liquid) of 1155.03 ± 0.8 kg/m3. For the same compound, the mass density (280 K, 1992.9 kPa, Liquid) was 1157.02 ± 0.83 kg/m3, the mass density (280 K, 2510.8 kPa, Liquid) was 1159.1 ± 0.86 kg/m3 and the mass density (280 K, 3011.5 kPa, Liquid) was 1161.06 ± 0.9 kg/m3. It also gave a mass density (280 K, 3522.2 kPa, Liquid) of 1163.04 ± 0.93 kg/m3, a mass density (280 K, 4037.2 kPa, Liquid) of 1164.99 ± 0.97 kg/m3 and a mass density (280 K, 4483.8 kPa, Liquid) of 1166.68 ± 1 kg/m3. It also gave a mass density (280 K, 4942.1 kPa, Liquid) of 1168.36 ± 1 kg/m3, a mass density (280 K, 5533.2 kPa, Liquid) of 1170.51 ± 1.1 kg/m3 and a mass density (280 K, 5977.4 kPa, Liquid) of 1172.09 ± 1.1 kg/m3. For the same compound, the mass density (280 K, 6516.6 kPa, Liquid) was 1173.99 ± 1.1 kg/m3, the mass density (280 K, 7008.7 kPa, Liquid) was 1175.7 ± 1.2 kg/m3 and the mass density (280 K, Liquid) was 1150.07 ± 2.9 kg/m3. It also gave a mass density (290 K, 18.9 kPa, Gas) of 0.76 ± 0.25 kg/m3, a mass density (290 K, 30.4 kPa, Gas) of 1.28 ± 0.25 kg/m3 and a mass density (290 K, 50.3 kPa, Gas) of 2.25 ± 0.26 kg/m3. The mass density (290 K, 74.2 kPa, Gas) was 3.26 ± 0.26 kg/m3, the mass density (290 K, 109 kPa, Gas) was 4.83 ± 0.27 kg/m3 and the mass density (290 K, 159.4 kPa, Gas) was 7.09 ± 0.27 kg/m3. The mass density (290 K, 232.8 kPa, Gas) was 10.52 ± 0.28 kg/m3, the mass density (290 K, 338.9 kPa, Gas) was 15.78 ± 0.3 kg/m3 and the mass density (290 K, 493.5 kPa, Liquid) was 1119.5 ± 0.64 kg/m3. It also gave a mass density (290 K, 976.7 kPa, Liquid) of 1121.93 ± 0.66 kg/m3, a mass density (290 K, 979.3 kPa, Liquid) of 1121.87 ± 0.66 kg/m3 and a mass density (290 K, 1475.8 kPa, Liquid) of 1124.36 ± 0.69 kg/m3. The mass density (290 K, 1999.9 kPa, Liquid) was 1126.86 ± 0.72 kg/m3, the mass density (290 K, 2466.6 kPa, Liquid) was 1129.04 ± 0.75 kg/m3 and the mass density (290 K, 2989.9 kPa, Liquid) was 1131.43 ± 0.78 kg/m3. The mass density (290 K, 3492.2 kPa, Liquid) was 1133.73 ± 0.81 kg/m3.
